Measured values: patent US10104891B2 (priority 2014, dated 2018)

Legend:
Assay type in all cases: in vivo
[1] = system: Phytophthora infestans; test: whole plant or invertebrate; details: Phytophthora infestans, in Solanum lycopersicum, 96 h, read-out: control value (Test 1)
[2] = system: Plasmopara viticola; test: Test 3: control effect against grape downy mildew; details: Plasmopara viticola, 120 h, control value vs untreated section
Summary of the method: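 Leaf lesion area, scored 5 days after inoculation and compared with untreated plants, gives the control value. Inoculation used P. viticola zoospores (1.0×10^4 units/ml) with a 16 hr moist incubation at 22° C. It followed by one day a spray of 4 ppm compound (wettable powder in Tween20) onto Neomuscat seedlings.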

[3] = system: Pythium graminicola; test: Test 4: control effect against rice damping-off by the Pythium fungus (soil lavage); details: 1,000 ppm, 2.5 ml test suspension drenched on contaminated soil, rice (koshihikari)
Procedure: A 10% wettable powder created according to the Pharmaceutical Formulation Example 1 was diluted with a Tween20 solution prepared to a concentration of 1/5000, then the compound of formula [1] was prepared to a concentration of 4 ppm. Further, the compound of formula [1] in Test 4 was adjusted to a concentration of 1,000 ppm.
<Test 4 Test of Control Effect Against Rice Damping-Off by the Pythium Fungus (Soil Lavage)>
Distilled water was added to the flora of Pythium graminicola cultured in bentoglass seed culture and stirred with a mixer, and adjusted the contaminated soil to 5 g of bacteria against 1 kg of soil.
In a cell tray having 31×31 mm^2 per cell, 20 ml of the contaminated soil was filled in each cell, and 3 seeds of rice chaff that has been forced to sprout (Species: koshihikari) were seeded, and 5 ml of soil was added for covering, then 2.5 ml of test suspension was drenched, and the seeds were incubated in a moist chamber adjusted to 28° C. for 72 hr to induce sprouting. Then, in a low temperature room of 5° C., the onset of disease was induced for 2 days, then the disease was nurtured for 14 days in a room of 25° C.
The soil was washed, and the apoptosis strain, growth restrained strain, and a healthy strain were measured and the onset rate was calculated by the following formula. Onset rate=[Σ(onset strain number by level×onset index)/(investigated strain×3)]×100 [Onset Index]
1: Growth restrained strain
Also, the following formula was used to compute the control value from the obtained onset index. control value={1−onset area rate at the section applied the test agent/onset area rate of untreated section}×100 Computational formula of the control value: […]

[4] = system: Pseudoperonospora cubensis; test: Test 2: control effect against cucumber downy mildew; details: Pseudoperonospora cubensis, 120 h, control value vs untreated section
Summary of the method: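 Protective test: zoospores (1.0×10^4 units/ml) misted one day after applying a 4 ppm suspension (wettable powder diluted in 1/5000 Tween20) to 2-leaf cucumber, Sagami hanjiro. After 16 hr at 22° C humid incubation, leaf lesion area read at day 5, expressed as control value versus untreated leaves.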

| Structure (SMILES) | pest or weed control at 4 µg/mL [1] | pest or weed control at 4 µg/mL [2] | pest or weed control at 1000 ppm [3] | pest or weed control at 4 µg/mL [4] |
| --- | --- | --- | --- | --- |
| COc1ccc(F)c2c1COC(c1csc(C3CCN(C(=O)Cc4cc(C)ccc4C)CC3)n1)OC2 (stereo not drawn) [Compound 2-52, 4-[4-(6-fluoro-9-methoxy-1,5-dihydro-3H-2,4-benzodioxepin-3-yl)-2-thiazolyl]-1-[2-(2,5-dimethylphenyl)acetyl]piperidine] | 100% | 100% | ≥ 90% | 100% |
| Cc1ccc(OS(C)(=O)=O)c2c1COC(c1csc(C3CCN(C(=O)Cn4nc(C(F)F)cc4C(F)F)CC3)n1)OC2 (stereo not drawn) [Compound 1-44, 4-[4-(6-methyl-9-methylsulfonyloxy-1,5-dihydro-3H-2,4-benzodioxepin-3-yl)-2-thiazolyl]-1-[2-[3,5-bis(difluoromethyl)-1H-pyrazole-1-yl]acetyl]piperidine] | 100% | 100% | ≥ 90% | 100% |
| Cc1cc(C(F)(F)F)nn1CC(=O)N1CCC(c2nc(C3OCc4cccc(OS(=O)(=O)N(C)C)c4CO3)cs2)CC1 (stereo not drawn) [Compound 1-90, 4-[4-[6-(dimethylaminosulfonyloxy)-1,5-dihydro-3H-2,4-benzodioxepin-3-yl]-2-thiazolyl]-1-[2-[5-methyl-3-(trifluoromethyl)-1H-pyrazole-1-yl]acetyl]piperidine] | 100% | 100% | ≥ 90% | 100% |
| O=C(Cc1cc(Cl)ccc1Cl)N1CCC(c2nc(C3OCc4c(F)c(F)c(F)c(F)c4CO3)cs2)CC1 [Compound 2-29, 4-[4-(6,7,8,9-tetrafluoro-1,5-dihydro-3H-2,4-benzodioxepin-3-yl)-2-thiazolyl]-1-[2-(2,5-dichlorophenyl)acetyl]piperidine] | 100% | 100% | ≥ 90% | 100% |
| Cc1cc(C(F)(F)F)nn1CC(=O)N1CCC(c2nc(C3OCc4ccc(C(C)(C)C)cc4CO3)cs2)CC1 (stereo not drawn) [Compound 1-79, 4-[4-(7-tert-butyl-1,5-dihydro-3H-2,4-benzodioxepin-3-yl)-2-thiazolyl]-1-[2-[5-methyl-3-(trifluoromethyl)-1H-pyrazole-1-yl]acetyl]piperidine] | 100% | 90% | ≥ 90% | 90% |
| Cc1ccc(C)c(CC(=O)N2CCC(c3nc(C4OCc5ccc(F)cc5CO4)cs3)CC2)c1 (stereo not drawn) [Compound 2-10, 4-[4-(7-fluoro-1,5-dihydro-3H-2,4-benzodioxepin-3-yl)-2-thiazolyl]-1-[2-(2,5-dimethylphenyl)acetyl]piperidine] | 80% | 100% | ≥ 90% | 100% |
| Cc1cc(C(F)(F)F)nn1CC(=O)N1CCC(c2nc(C3OCc4cccc(S(C)(=O)=O)c4CO3)cs2)CC1 (stereo not drawn) [Compound 1-47, 4-[4-(6-methylsulfonyl-1,5-dihydro-3H-2,4-benzodioxepin-3-yl)-2-thiazolyl]-1-[2-[5-methyl-3-(trifluoromethyl)-1H-pyrazole-1-yl]acetyl]piperidine] | 100% | 100% | ≥ 90% | 100% |
| CCCCS(=O)(=O)Oc1cccc2c1COC(c1csc(C3CCN(C(=O)Cn4nc(C(F)(F)F)cc4C)CC3)n1)OC2 (stereo not drawn) [Compound 1-21, 4-[4-(6-butylsulfonyloxy-1,5-dihydro-3H-2,4-benzodioxepin-3-yl)-2-thiazolyl]-1-[2-[5-methyl-3-(trifluoromethyl)-1H-pyrazole-1-yl]acetyl]piperidine] | 90% | 100% | ≥ 90% | 100% |
| Cc1cc(C(F)(F)F)nn1CC(=O)N1CCC(c2nc(C3OCc4cccc(C(F)F)c4CO3)cs2)CC1 (stereo not drawn) [Compound 1-97, 4-[4-[6-(difluoromethyl)-1,5-dihydro-3H-2,4-benzodioxepin-3-yl]-2-thiazolyl]-1-[2-[5-methyl-3-(trifluoromethyl)-1H-pyrazole-1-yl]acetyl]piperidine] | 100% | 100% | ≥ 90% | 100% |
| COc1cccc2c1COC(c1csc(C3CCN(C(=O)Cn4nc(C(F)(F)F)cc4C(F)(F)F)CC3)n1)OC2 (stereo not drawn) [Compound 1-140, 4-[4-(6-methoxy-1,5-dihydro-3H-2,4-benzodioxepin-3-yl)-2-thiazolyl]-1-[2-[3,5-bis(trifluoromethyl)-1H-pyrazole-1-yl]acetyl]piperidine] | 100% | 100% | ≥ 90% | 100% |
| Cc1cc(C(F)(F)F)nn1CC(=O)N1CCC(c2nc(C3OCc4cccc(Br)c4CO3)cs2)CC1 (stereo not drawn) [Compound 1-15, 4-[4-(6-bromo-1,5-dihydro-3H-2,4-benzodioxepin-3-yl)-2-thiazolyl]-1-[2-[5-methyl-3-(trifluoromethyl)-1H-pyrazole-1-yl]acetyl]piperidine] | 100% | 100% | ≥ 90% | 100% |
| COc1ccc(C)c2c1COC(c1csc(C3CCN(C(=O)Cc4cc(C)ccc4C)CC3)n1)OC2 (stereo not drawn) [Compound 2-45, 4-[4-(6-methoxy-9-methyl-1,5-dihydro-3H-2,4-benzodioxepin-3-yl)-2-thiazolyl]-1-[2-(2,5-dimethylphenyl)acetyl]piperidine] | 90% | 100% | ≥ 90% | 100% |
| Cc1ccc(C)c(CC(=O)N2CCC(c3nc(C4OCc5cccc([N+](=O)[O-])c5CO4)cs3)CC2)c1 (stereo not drawn) [Compound 2-39, 4-[4-(6-nitro-1,5-dihydro-3H-2,4-benzodioxepin-3-yl)-2-thiazolyl]-1-[2-(2,5-dimethylphenyl)acetyl]piperidine] | 100% | 100% | ≥ 90% | 100% |
| Cc1cc(C(F)(F)F)nn1CC(=O)N1CCC(c2nc(C3OCc4cccc(O)c4CO3)cs2)CC1 (stereo not drawn) [Compound 1-33, 4-[4-(6-hydroxy-1,5-dihydro-3H-2,4-benzodioxepin-3-yl)-2-thiazolyl]-1-[2-[5-methyl-3-(trifluoromethyl)-1H-pyrazole-1-yl]acetyl]piperidine] | 100% | 100% | ≥ 90% | 100% |
| CC(C)(C)c1ccc2c(c1)COC(c1csc(C3CCN(C(=O)Cn4nc(C(F)F)cc4C(F)F)CC3)n1)OC2 (stereo not drawn) [Compound 1-78, 4-[4-(7-tert-butyl-1,5-dihydro-3H-2,4-benzodioxepin-3-yl)-2-thiazolyl]-1-[2-[3,5-bis(difluoromethyl)-1H-pyrazole-1-yl]acetyl]piperidine] | 100% | 100% | ≥ 90% | 100% |
| Cc1ccc(C)c(CC(=O)N2CCC(c3nc(C4OCc5ccc([N+](=O)[O-])cc5CO4)cs3)CC2)c1 (stereo not drawn) [Compound 2-18, 4-[4-(7-nitro-1,5-dihydro-3H-2,4-benzodioxepin-3-yl)-2-thiazolyl]-1-[2-(2,5-dimethylphenyl)acetyl]piperidine] | 100% | 100% | ≥ 90% | 100% |
| O=C(Cn1nc(C(F)F)cc1C(F)F)N1CCC(c2nc(C3OCc4cccc(Br)c4CO3)cs2)CC1 (stereo not drawn) [Compound 1-113, 4-[4-(6-bromo-1,5-dihydro-3H-2,4-benzodioxepin-3-yl)-2-thiazolyl]-1-[2-[3,5-bis(difluoromethyl)-1H-pyrazole-1-yl]acetyl]piperidine] | 100% | 100% | ≥ 90% | 100% |
| Cc1cc(C(F)(F)F)nn1CC(=O)N1CCC(c2nc(C3OCc4cccc(CCl)c4CO3)cs2)CC1 (stereo not drawn) [Compound 1-69, 4-[4-[6-(chloromethyl)-1,5-dihydro-3H-2,4-benzodioxepin-3-yl]-2-thiazolyl]-1-[2-[5-methyl-3-(trifluoromethyl)-1H-pyrazole-1-yl]acetyl]piperidine] | 100% | 100% | ≥ 90% | 60% |
